Measured values as given in patent US12202868B1, “Stapled and specifically targeted antimicrobial peptide” (KING SAUD UNIVERSITY, priority 2024, dated 2025).
Values after ≈ are worked out from the molar mass of the structure shown. Like-named read-outs stand apart in the source and are kept apart here. Positions of bridges follow the written chain, without caps; N, C: chain ends. Non-standard residues stand in square brackets, D forms with d. Residues, ends and D or L forms follow the SMILES beside them. S5 = C=CCCC[C@](C)(N)C(=O)O

Tests used:
Bacillus subtilis = assay: microbe, parasite or virus in culture; type: cell-based; details: B. subtilis, 30 μl in 6 mm well, ssTAMP 100 μg/ml, Kanamycin 10 μg/ml, 24 hours, mean±SD, n=3
Description: (§1) Microbial cultures were procured from the microbiology department, College of Pharmacy, King Saud University, Riyadh. Strains were grown aerobically at 37° C. with shaking in Muller Hilton media.
(§2) The agar diffusion method was used to examine the synthesized ssTAMP's antibacterial activity. Pure colonies of Bacillus subtilis, Streptococcus pneumonia, Staphalycoccus aureus, Streptococcus mutans, Escherichia coli, and Kleibsella pneumonia were used for antibacterial susceptibility testing according to Clinical Laboratory Standards Institute (CLSI) 2021 guidelines by using a modified Kirby-Bauer disk diffusion technique. In brief, homogeneous colonies were chosen from each microbial strain and grown on Mullar Hilton broth at log phase. 0.5 McFarland standard culture was used to spread on to the Mullar Hilton agar plates. Freshly prepared 30 μl each of Kanamycin 10 μg/ml and ssTAMP 100 μg/ml was poured into 6 mm diameter well, blank well with equivalent amount of saline served as a […]. The plates were incubated for 24 hours, and the diameter of the inhibition zone was measured to determine if the findings were susceptible or resistant. The full analysis was carried out three times.
(§3) The agar diffusion method was used to test antimicrobial susceptibility of sSTAMP against B. Subtilis, S. Pneumoniae, S. Aureus, S. Mutans, E. Coli, and Kleibsella pneumonia strains (FIG. 1).

Escherichia coli = assay: microbe, parasite or virus in culture; type: cell-based; details: E. coli, 30 μl in 6 mm well, ssTAMP 100 μg/ml, Kanamycin 10 μg/ml, 24 hours, mean±SD, n=3
Description: as §1, §2, §3

Staphylococcus aureus = assay: microbe, parasite or virus in culture; type: cell-based; details: S. aureus, 30 μl in 6 mm well, ssTAMP 100 μg/ml, Kanamycin 10 μg/ml, 24 hours, mean±SD, n=3
Description: as §1, §2, §3

Streptococcus mutans = assay: microbe, parasite or virus in culture; type: cell-based; details: S. mutans, 30 μl in 6 mm well, ssTAMP 100 μg/ml, Kanamycin 10 μg/ml, 24 hours, mean±SD, n=3
Description: as §1, §2, §3

Streptococcus pneumonia = assay: microbe, parasite or virus in culture; type: cell-based; details: S. pneumonia, 30 μl in 6 mm well, ssTAMP 100 μg/ml, Kanamycin 10 μg/ml, 24 hours, mean±SD, n=3
Description: as §1, §2, §3

Kleibsella pneumonia [1] = assay: organism not typed; type: cell-based; details: 30 μl in 6 mm well, ssTAMP 100 μg/ml, Kanamycin 10 μg/ml, 24 hours, mean±SD, n=3
Description: as §1, §2, §3

B. subtilis [2] = tested on: B. subtilis
S. pneumonia [3] = tested on: S. pneumonia
S. mutans [4] = tested on: S. mutans
E. coli [5] = tested on: E. coli
Kleibsella pneumonia [6] = tested on: Kleibsella pneumonia
Kleibsella pneumonia [7] = assay: organism not typed; details: read-out: Minimum Inhibitory concentration
B. subtilis [8] = assay: microbe, parasite or virus in culture; details: Bacillus subtilis, read-out: Minimum Inhibitory concentration
S. pneumonia [9] = assay: microbe, parasite or virus in culture; details: Streptococcus pneumoniae, read-out: Minimum Inhibitory concentration
S. aureus [10] = assay: microbe, parasite or virus in culture; details: Staphylococcus aureus, read-out: Minimum Inhibitory concentration
S. mutans [11] = assay: microbe, parasite or virus in culture; details: Streptococcus mutans, read-out: Minimum Inhibitory concentration
E. coli [12] = assay: microbe, parasite or virus in culture; details: Escherichia coli, read-out: Minimum Inhibitory concentration
A549 lung cancer cells = type: cell-based; details: human, 24 h
Description: (§4) MCF-7 and A549 cells were cultured under aseptic conditions at 37° C. and 5% CO2 using Dulbecco's Modified Eagle's Medium (DMEM), accompanied with 1% mixture of “Penicillin-Streptomycin”, and 10% Fetal Bovine Serum (FBS). The cells were processed and grown in a sterile environment and all the procedures were done in a biosafety cabinet. The cells were harvested using 0.25% trypsin containing EDTA and phenol red, once they reached around 80% confluency. To test the in-vitro toxicity of the antimicrobial peptide, the harvested cells were seeded in 96 well plates for conducting a cell viability assay using MTT (3-(4,5-dimethylthiazol-2-yl)-2,5-diphenyl tetrazolium bromide).
(§5) In order to investigate the in-vitro cytotoxicity of ssTAMP using the MTT assay, cell viability was carried out in MCF-7 and A549 cells. To achieve a cell density of 5×10^5 cells/mL, trypsin was introduced to the cells during their exponential phase of growth. After that, 100 μL of media and the cell suspension (15000 cells/well) were placed on a flat-bottomed microplate, where they were left to attach to the bottom overnight. The following day, 10 μL of freshly prepared medium containing ssTAMP concentrations ranging from 7.81 to 1000 µg/mL was added to the preexisting medium. As a negative control, a triplicate of untreated, FBS-free DMEM were used. Each product's dilution was tested three times. After 24 hours, the media was carefully removed from the wells. After that, 10 μL of MTT solution (5 mg/mL in PBS) and 90 μL of the medium were added. After that, this combination was incubated for 4 hours at room temperature. The medium and MTT in the culture fluid were then drawn out, leaving the formazan crystal precipitate. Formazan was dissolved for 15 minutes at room temperature in a […]. At 570 nm, the absorbance was measured (Synergy HT, BioTek Inst., VT, USA). Cell viability was calculated as a percentage of the absorbance when compared with negative control considered as 100%. The cytotoxic effects of ssTAMP on MCF-7 and A549 cells were expressed as IC50 values.
(§6) The percentage cell viabilities of MCF-7 breast cancer cells and A549 lung cancer cells against varying concentrations of ssTAMP are presented in FIGS. 3A-3B. […] The cytotoxicity starts to appear at the lowest concentration of ssTAMP used (7.81 μg/mL in MCF-7, and 15.62 μg/mL in A549). The effect pattern of the ssTAMP in both the cell lines is similar up to the concentration of 250 μg/mL. However MCF-7 appear to be more sensitive at higher concentrations of ssTAMP above 250 μg/mL.

[13] = tested on: MCF-7 breast cancer cells; type: cell-based; details: human, 24 h
Description: as §4, §5, §6

S. aureus [14] = tested on: S. aureus
[15] = B. subtilis, microdilution, overnight 37° C., mean±SD, n=3
[16] = S. pneumonia, microdilution, overnight 37° C., mean±SD, n=3
[17] = S. mutans, microdilution, overnight 37° C., mean±SD, n=3
[18] = E. coli, microdilution, overnight 37° C., mean±SD, n=3
[19] = Kleibsella pneumonia, microdilution, overnight 37° C., mean±SD, n=3

For `NC[C@H]1O[C@H](O[C@H]2[C@H](O)[C@@H](O[C@H]3O[C@H](CO)[C@@H](O)[C@H](N)[C@H]3O)[C@H](N)C[C@@H]2N)[C@H](O)[C@@H](O)[C@@H]1O` [Kanamycin], the Zone of inhibition (Bacillus subtilis) was 16.40 ± 0.46 mm, the zone of inhibition at 10 µg/mL (Bacillus subtilis; Bacillus subtilis) was 16.4 ± 0.46 mm and the Zone of inhibition (Escherichia coli) was 14.90 ± 0.25 mm. The zone of inhibition at 10 µg/mL (Escherichia coli; Escherichia coli) was 14.9 ± 0.25 mm, the Zone of inhibition (Staphylococcus aureus) was 16.07 ± 0.45 mm and the zone of inhibition at 10 µg/mL (Staphylococcus aureus; Staphylococcus aureus) was 16.1 ± 0.45 mm. For the same compound, the Zone of inhibition (Streptococcus mutans) was 18.37 ± 0.58 mm, the zone of inhibition at 10 µg/mL (Streptococcus mutans; Streptococcus mutans) was 18.4 ± 0.58 mm and the Zone of inhibition (Streptococcus pneumonia) was 15.70 ± 0.4 mm. The zone of inhibition at 10 µg/mL (Streptococcus pneumonia; Streptococcus pneumoniae) was 15.7 ± 0.4 mm, the Zone of inhibition (Kleibsella pneumonia [1]) was 15.10 ± 0.74 mm and the zone of inhibition at 10 µg/mL (Kleibsella pneumonia [1]) was 15.1 ± 0.74 mm. For the same compound, the “Minimum Inhibitory concentration” value (B. subtilis [2]; [15]) was 1.67 ± 0.42 µg/mL, the “Minimum Inhibitory concentration” value (S. pneumonia [3]; [16]) was 1.67 ± 0.42 µg/mL and the “Minimum Inhibitory concentration” value (S. mutans [4]; [17]) was 1.04 ± 0.21 µg/mL. For the same compound, the “Minimum Inhibitory concentration” value (E. coli [5]; [18]) was 1.46 ± 0.55 µg/mL, the “Minimum Inhibitory concentration” value (Kleibsella pneumonia [6]; [19]) was 1.25 ± 0.00 µg/mL and the MIC (Kleibsella pneumonia [7]) was 1.25 µg/mL (≈ 2.58 µM). It also gave an MIC (B. subtilis [8]) of 1.67 ± 0.42 µg/mL (≈ 3.45 µM), an MIC (S. pneumonia [9]) of 1.67 ± 0.42 µg/mL (≈ 3.45 µM) and an MIC (S. aureus [10]) of 1.67 ± 0.42 µg/mL (≈ 3.45 µM). It also gave an MIC (S. mutans [11]) of 1.04 ± 0.21 µg/mL (≈ 2.15 µM) and an MIC (E. coli [12]) of 1.46 ± 0.55 µg/mL (≈ 3.01 µM).

`CC[C@H](C)[C@H](NC(=O)[C@H](CCCNC(=N)N)NC(=O)[C@H](CCCCN)NC(=O)[C@]1(C)CCCC=CCCC[C@](C)(NC(=O)[C@H](CCCCN)NC(=O)[C@H](CCC(=O)O)NC(=O)[C@H](CCCCN)NC(=O)[C@H](CO)NC(=O)[C@H](CCCCN)NC(=O)[C@H](CCCNC(=N)N)NC(=O)[C@H](Cc2ccccc2)NC(=O)[C@H](Cc2ccccc2)NC(=O)CNC(=O)CNC(=O)[C@H](CC(N)=O)NC(=O)[C@H](CCCNC(=N)N)NC(=O)[C@H](Cc2ccccc2)NC(=O)[C@@H](NC(=O)[C@H](C)NC(=O)[C@@H](NC(=O)[C@H](CC(=O)O)NC(=O)[C@H](CCCCN)NC(=O)[C@H](CCC(=O)O)NC(=O)CNC(=O)[C@@H](NC(=O)[C@H](CO)NC(=O)[C@@H]2CCCN2C(=O)[C@@H](N)CC(C)C)[C@@H](C)O)[C@@H](C)O)C(C)C)C(=O)NCC(=O)N[C@@H](CCCCN)C(=O)N[C@@H](CCC(=O)O)C(=O)N1)C(=O)N[C@H](C(N)=O)C(C)C` [ssTAMP] (H-LPSTGEKDTAVFRNGGFFRKSKEK[S5]GKE[S5]KRIV-NH2; staple 25-29; N-terminus assumed) gave a Zone of inhibition (Bacillus subtilis) of 20.63±0.85 mm, a Zone of inhibition (Escherichia coli) of 24.30±1.08 mm and a Zone of inhibition (Staphylococcus aureus) of 9.60±0.32 mm. For the same compound, the Zone of inhibition (Streptococcus mutans) was 22.23±1.39 mm, the Zone of inhibition (Streptococcus pneumonia) was 20.17±0.72 mm and the Zone of inhibition (Kleibsella pneumonia [1]) was 23.47±1.40 mm. The “IC50, cytotoxicity by MTT assay” value (A549 lung cancer cells) was 265.0 µg/mL, the cells viable (A549 lung cancer cells; 250 μg/ml) was “more than 50%” and the “IC50, cytotoxicity by MTT assay” value [13] was 558.2 µg/mL. The cells viable ([13]; 250 μg/ml) was “more than 50%”, the “Minimum Inhibitory concentration” value (B. subtilis [2]) was 8.33 ± 2.08 µg/mL and the “Minimum Inhibitory concentration” value (B. subtilis [2]; [15]) was 8.33 ± 2.08 µg/mL. For the same compound, the “Minimum Inhibitory concentration” value (S. pneumonia [3]) was 10.42 ± 2.08 µg/mL, the “Minimum Inhibitory concentration” value (S. pneumonia [3]; [16]) was 10.42 ± 2.08 µg/mL and the “Minimum Inhibitory concentration” value (S. aureus [14]) was 12.50 ± 0.000 µg/mL. For the same compound, the “Minimum Inhibitory concentration” value (S. aureus [14]; S. aureus, microdilution, overnight 37° C., mean±SD, n=3) was 12.50 ± 0.000 µg/mL, the “Minimum Inhibitory concentration” value (S. mutans [4]) was 8.33 ± 2.08 µg/mL and the “Minimum Inhibitory concentration” value (S. mutans [4]; [17]) was 8.33 ± 2.08 µg/mL. The “Minimum Inhibitory concentration” value (E. coli [5]) was 5.21 ± 1.05 µg/mL, the “Minimum Inhibitory concentration” value (E. coli [5]; [18]) was 5.21 ± 1.05 µg/mL and the “Minimum Inhibitory concentration” value (Kleibsella pneumonia [6]) was 5.21 ± 1.042 µg/mL. The “Minimum Inhibitory concentration” value (Kleibsella pneumonia [6]; [19]) was 5.21 ± 1.042 µg/mL.
